Data reported in patent US20240201169A1, “METHODS OF THREE-DIMENSIONAL TUMOR SPHEROID MICROARRAY FOR HIGH-THROUGHPUT, HIGH-CONTENT IMMUNE CELL-MEDIATED CYTOTOXICITY” (RENSSELAER POLYTECHNIC INSTITUTE, priority 2021, published 2024).

How the values were obtained:
MDA-MB-231 spheroids = assay: 3D tumor spheroid 330-micropillar/microwell cytotoxicity (NK ADCC/drug combination, paclitaxel dose response); assay type: cell-based; details: for target cell cytotoxicity of combination: combination of NK92-CD16 at E:T 10:1, Trastuzumab and drug (3.5 nM doxorubicin, p<0.01; 7.0 nM paclitaxel, p<0.05)
Description: (§1) High-content imaging of 3D tumor spheroid micropillar array for effector cell-mediated cytotoxicity including NK ADCC/drug combination. Uniform-sized 3D spheroids in the 330-micropillar array were used to perform high-throughput ADCC on three different cancer cell lines; MiaPaCa-2, MCF7 and MDA-MB-231, the latter a triple negative breast cancer cell line, in the presence and absence of two chemotherapeutic drugs, doxorubicin and paclitaxel. The ADCC screen was performed by spotting 250 nL onto polydopamine-coated micropillars including 2500 target cancer cells per spot. The cells were cultured for 3 days and then treated with NK92-CD16 cells. […] As a control, one block of spots was reserved for exposure of target cells with both antibody and the drugs but without NK92-CD16 cells. The micropillar/microwell sandwich platform was incubated for 24 h upside-down to allow for target cell killing on culture day 3. The next day, the chips were then washed, stained with Hoechst 33342, Calcein-AM and Propidium Iodide, and imaged using the ASFA™ scanner.
(§2) There was interest in whether MDA-MB-231, which is a triple negative breast cancer cell line having reduced expression of estrogen receptor (ER), progesterone receptor and HER252, was susceptible to cell death upon combination exposure of paclitaxel, Atezolizumab and NK92-CD16 cells. Triple negative breast cancers are particularly aggressive to treat due to very low expression levels of ER, PR and HER253. To test this, the three target cancer cell lines were spotted onto the 330-micropillar platform to generate the corresponding 3D spheroids. […] The 3D spheroids on the micropillar chip were incubated for 24 h, and then stained and imaged.
3D experiments on 330-micropillar/microwell sandwich system. Polystyrene 330 micropillar chips (MBD Korea Co., South Korea) were coated with polydopamine, washed and dried until further use. The 330 well chips were UV-treated using a 96 W transilluminator (Syngene GVM-30) for 4 h to enhance surface hydrophilicity. Cancer cells were detached as described previously and mixed with high concentration growth factor-reduced Matrigel to obtain a final cell concentration of 1×10^7 cells/mL. Then, 250 nL of the Matrigel-cell mixture was spotted using the ASFA™ spotter onto the polydopamine coated 330 micropillar chips. The chips were incubated face down in a humidity chamber at 37° C. for 15 min to allow for gelation and then they were sandwiched with the corresponding 330 microwell chip including 3.6 μL of fresh medium per well. The chips were cultured for a period of 3 days prior to NK cell exposure. The cell growth medium on the chip was exchanged every 2 days. For cytotoxicity experiments, where the NK92-CD16 ratio was varied, 25 different conditions were tested (see Table 1 below), including a dead control (via addition of saponin).
(§3) Similarly, for the dose response experiments with paclitaxel, where the E:T ratio was fixed at 5:1, 25 different conditions including a dead cell control were evaluated, as shown in Table 2.
Unconjugated anti-HER2 antibody was used for experiments on 330 micropillar/microwell chips. […] The micropillar chip with target cells was then stamped onto the 330 microwell chip and incubated upside down for 24 h. […] The chips were subsequently washed in DPBS and imaged using an ASFA™ Cell Scanner (MBD Korea Co., South Korea) and quantitatively analyzed using cell analyzer software within the imaging system. […]

MCF7 spheroids = assay type: cell-based; details: for target cell cytotoxicity of combination: combination of NK92-CD16 at E:T 10:1, Trastuzumab and drug (3.5 nM doxorubicin, p<0.01; 7.0 nM paclitaxel, p<0.05)
Description: as §1, §2
3D experiments on 330-micropillar/microwell sandwich system. Polystyrene 330 micropillar chips (MBD Korea Co., South Korea) were coated with polydopamine, washed and dried until further use. The 330 well chips were UV-treated using a 96 W transilluminator (Syngene GVM-30) for 4 h to enhance surface hydrophilicity. Cancer cells were detached as described previously and mixed with high concentration growth factor-reduced Matrigel to obtain a final cell concentration of 1×10^7 cells/mL. Then, 250 nL of the Matrigel-cell mixture was spotted using the ASFA™ spotter onto the polydopamine coated 330 micropillar chips. […]
as §3
(§4) Unconjugated anti-HER2 antibody was used for experiments on 330 micropillar/microwell chips. […] The chips were subsequently washed in DPBS and imaged using an ASFA™ Cell Scanner (MBD Korea Co., South Korea) and quantitatively analyzed using cell analyzer software within the imaging system. […]

[1] = system: three target cancer cell lines (3D spheroids); assay: cells; details: 24 h, read-out: EC50 (paclitaxel-induced cytotoxicity)
Source text: as §2
3D experiments on 330-micropillar/microwell sandwich system. Polystyrene 330 micropillar chips (MBD Korea Co., South Korea) were coated with polydopamine, washed and dried until further use. […]
as §3, §4

MiaPaCa-2 spheroids = details: antibody 2.5 μg/mL with NK92-CD16 (5:1) and paclitaxel dose range, 24 h
Description: as §1, with “The next day, the chips were then washed, stained with Hoechst 33342, Calcein-AM and Propidium Iodide, and imaged using the ASFA™ scanner.” left out
as §3, §4

[2] = paclitaxel alone, spheroid culture

Compound | target cell cytotoxicity of combination (MDA-MB-231 spheroids; 24 h) | target cell cytotoxicity of combination (MCF7 spheroids; 24 h) | EC50 [1] [µM] | effectiveness as a cytotoxic agent (MDA-MB-231 spheroids; [2]) | fold lower EC50 value for paclitaxel (MDA-MB-231 spheroids; paclitaxel in the presence of Atezolizumab 2.5 μg/mL along with NK92-CD16 (5:1), 24 h) | cytotoxic effectiveness of condition (MDA-MB-231 spheroids; paclitaxel in the presence of both Trastuzumab 2.5 μg/mL and NK92-CD16 (5:1), 24 h) | effectiveness as a cytotoxic agent (MCF7 spheroids; [2]) | fold lower EC50 value for paclitaxel (MCF7 spheroids; paclitaxel with Trastuzumab 2.5 μg/mL and NK92-CD16 (5:1) vs absence of antibody and effector cells, 24 h) | inducing cytotoxicity (MiaPaCa-2 spheroids)
COc1cccc2c1C(=O)c1c(O)c3c(c(O)c1C2=O)C[C@@](O)(C(=O)CO)C[C@@H]3O[C@H]1C[C@H](N)[C@H](O)[C@H](C)O1 [doxorubicin] | significantly more effective | significantly more effective |  |  |  |  |  |  | 
CC(=O)O[C@H]1C(=O)[C@@]2(C)[C@H]([C@H](OC(=O)c3ccccc3)[C@]3(O)C[C@H](OC(=O)[C@H](O)[C@@H](NC(=O)c4ccccc4)c4ccccc4)C(C)=C1C3(C)C)[C@]1(OC(C)=O)CO[C@@H]1C[C@@H]2O [paclitaxel] | significantly more effective | significantly more effective | > 500 | poorly effective | approximately 43 fold | did not prove to be effective | poorly effective | approximately 1.8 fold | 
Atezolizumab |  |  |  |  |  |  |  |  | effective in inducing cytotoxicity
